{"source": "BindingDB's records for doi:10.1016/j.ejmech.2020.112337", "about": "(Paris-Saclay University, 2020)", "key": {"[1]": {"assay": "Inhibition of RIPK1 in human FADD-deficient Jurkat I 2.1 cells assessed as protection against TNFalpha-induced necroptosis measured after 24 hrs by MTS assay"}, "[2]": {"assay": "Inhibition of RIPK1 in human FADD-deficient Jurkat I 2.1 cells assessed as reduction in TNFalpha-induced necroptosis measured after 24 hrs by MTS assay"}}, "data": [{"smiles": "CCCCNc1nc2cccc(C(=O)OC)c2[nH]1", "values": [{"measurement": "EC50", "setting": "[1]", "value": 18.1, "unit": "µM"}]}, {"smiles": "CC(C)Nc1nc2ccc([N+](=O)[O-])cc2[nH]1", "values": [{"measurement": "EC50", "setting": "[1]", "value": "> 25", "unit": "µM"}]}, {"smiles": "Clc1ccc2nc(NC3CCCCC3)[nH]c2c1", "values": [{"measurement": "EC50", "setting": "[1]", "value": 4.4, "unit": "µM"}]}, {"smiles": "CCCCNc1nc2ccc([N+](=O)[O-])cc2s1", "values": [{"measurement": "EC50", "setting": "[1]", "value": 6.9, "unit": "µM"}]}, {"smiles": "CCCCNc1nc2ccc([N+](=O)[O-])cc2[nH]1", "values": [{"measurement": "EC50", "setting": "[2]", "value": 1.7, "unit": "µM"}, {"measurement": "EC50", "setting": "[1]", "value": 1.7, "unit": "µM"}]}, {"smiles": "COC(=O)c1cccc2nc(NC3CCCCC3)[nH]c12", "values": [{"measurement": "EC50", "setting": "[1]", "value": 9, "unit": "µM"}]}, {"smiles": "O=[N+]([O-])c1ccc2nc(NC3CCCCC3)[nH]c2c1", "values": [{"measurement": "EC50", "setting": "[1]", "value": 1.04, "unit": "µM"}]}, {"smiles": "CCCNc1nc2ccc([N+](=O)[O-])cc2[nH]1", "values": [{"measurement": "EC50", "setting": "[1]", "value": 14.4, "unit": "µM"}]}, {"smiles": "CCCCNc1nc2cc([N+](=O)[O-])ccc2s1", "values": [{"measurement": "EC50", "setting": "[1]", "value": 4.7, "unit": "µM"}]}, {"smiles": "O=[N+]([O-])c1ccc2nc(Nc3ccccc3)[nH]c2c1", "values": [{"measurement": "EC50", "setting": "[1]", "value": 2.5, "unit": "µM"}]}]}
